What was measured:
[1] = molecular target: T1, VEGFR-2 (Homo sapiens, UniProt P35968); test: VEGFR-2 kinase assay kit (BPS), Kinase-Glo Max luminescence; type: biochemical; details: VEGFR-2, single dose 10 µM, duplicate, mean ± SD
T1 construct: purchased BPS Biosciences 40325

[2] = tested on: A498; test: NCI SRB growth inhibition (single dose 10 µM / five-dose); type: cell-based, human; details: for GI50: A498, Renal cancer, five-dose
Method in brief: (§1)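 Percent growth relative to untreated control and time-zero cell mass, determined by SRB. Five drug levels (10-fold or half-log steps) plus control; time-zero plates fixed 24 h after seeding.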

[3] = tested on: DU-145; test: as above; type: cell-based, human; details: for GI50: DU-145, Prostate cancer, five-dose
Method in brief: as §1

[4] = tested on: HCT-116; test: as above; type: cell-based, human
Method in brief: as §1

[5] = tested on: K-562; test: as above; type: cell-based, human; details: for GI50: K-562, Leukemia, five-dose
Method in brief: as §1

[6] = tested on: LOX IMVI; test: as above; type: cell-based, human; details: for GI50: LOX IMVI, Melanoma, five-dose
Method in brief: as §1

[7] = tested on: MCF7; test: as above; type: cell-based, human; details: for GI50: MCF7, Breast cancer, five-dose
Method in brief: as §1

[8] = tested on: MDA-MB-468; test: as above; type: cell-based, human; details: for GI50: MDA-MB-468, Breast cancer, five-dose
Method in brief: as §1

[9] = tested on: RPMI-8226; test: as above; type: cell-based, human; details: for GI50: RPMI-8226, Leukemia, five-dose
Method in brief: as §1

[10] = tested on: SF-539; test: as above; type: cell-based, human; details: for GI50: SF-539, CNS cancer, five-dose
Method in brief: as §1

[11] = tested on: SNB-19; test: as above; type: cell-based, human; details: for GI50: SNB-19, CNS cancer, five-dose
Method in brief: as §1

[12] = tested on: SNB-75; test: as above; type: cell-based, human; details: for GI50: SNB-75, CNS cancer, five-dose
Method in brief: as §1

[13] = tested on: SW-620; test: as above; type: cell-based, human; details: for GI50: SW-620, Colon cancer, five-dose
Method in brief: as §1

T1 sequence (P35968 20-1356): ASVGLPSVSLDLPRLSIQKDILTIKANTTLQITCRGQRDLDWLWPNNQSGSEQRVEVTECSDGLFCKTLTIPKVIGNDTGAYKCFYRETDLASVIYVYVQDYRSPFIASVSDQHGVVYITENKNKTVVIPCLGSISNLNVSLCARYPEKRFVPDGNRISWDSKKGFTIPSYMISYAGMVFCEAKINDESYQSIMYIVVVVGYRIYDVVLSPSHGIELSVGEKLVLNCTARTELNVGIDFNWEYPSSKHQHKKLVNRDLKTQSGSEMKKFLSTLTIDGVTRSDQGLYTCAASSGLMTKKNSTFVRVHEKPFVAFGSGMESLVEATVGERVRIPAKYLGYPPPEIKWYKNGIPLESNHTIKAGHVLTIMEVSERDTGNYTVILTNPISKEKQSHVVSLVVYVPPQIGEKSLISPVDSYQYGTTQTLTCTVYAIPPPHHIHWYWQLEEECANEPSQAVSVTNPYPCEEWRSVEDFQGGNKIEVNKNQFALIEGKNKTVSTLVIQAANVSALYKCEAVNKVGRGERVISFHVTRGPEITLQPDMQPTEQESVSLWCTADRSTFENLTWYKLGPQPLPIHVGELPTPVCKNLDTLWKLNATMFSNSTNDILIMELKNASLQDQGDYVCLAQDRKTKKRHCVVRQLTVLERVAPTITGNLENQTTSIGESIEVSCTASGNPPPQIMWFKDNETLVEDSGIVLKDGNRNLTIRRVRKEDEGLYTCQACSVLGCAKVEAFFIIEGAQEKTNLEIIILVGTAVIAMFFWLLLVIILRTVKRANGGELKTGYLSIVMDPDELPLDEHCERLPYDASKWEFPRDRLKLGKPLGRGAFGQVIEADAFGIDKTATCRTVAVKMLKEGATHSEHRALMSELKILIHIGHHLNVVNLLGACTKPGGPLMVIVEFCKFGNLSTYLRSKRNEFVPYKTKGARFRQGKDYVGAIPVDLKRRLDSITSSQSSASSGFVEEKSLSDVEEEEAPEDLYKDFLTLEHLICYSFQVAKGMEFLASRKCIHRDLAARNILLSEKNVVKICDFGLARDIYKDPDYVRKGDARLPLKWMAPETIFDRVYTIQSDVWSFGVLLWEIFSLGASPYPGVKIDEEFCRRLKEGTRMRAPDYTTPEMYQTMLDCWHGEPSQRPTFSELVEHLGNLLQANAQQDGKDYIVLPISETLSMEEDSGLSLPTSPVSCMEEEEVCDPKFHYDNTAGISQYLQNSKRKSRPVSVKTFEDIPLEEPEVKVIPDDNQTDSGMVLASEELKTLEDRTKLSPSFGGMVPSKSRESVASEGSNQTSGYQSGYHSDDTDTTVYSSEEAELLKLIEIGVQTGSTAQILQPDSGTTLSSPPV

## COc1cc(C=NNC(=O)c2ccc3[nH]c(-c4ccc(Cl)cc4)nc3c2)cc(OC)c1OC [8u, 2-(4-Chlorophenyl)-N'-(3,4,5-trimethoxybenzylidene)-1H-benzo[d]imidazole-5-carbohydrazide]
[1]
  inhibition at 10 µM: 80 ± 3.98%
[2]; Homo sapiens, A498 (Renal cancer), 10 µM, read-out: GI%
  inhibition at 10 µM: > 100%
[2]; Homo sapiens
  GI50: 26.4 µM
[3]; Homo sapiens, DU-145 (Prostate cancer), 10 µM, read-out: GI%
  inhibition at 10 µM: > 100%
[3]; Homo sapiens
  GI50: 6.77 µM
[4]; Homo sapiens, HCT-116
  GI50: 3.26 µM
[4]; Homo sapiens, HCT-116, read-out: GI%
  inhibition at 10 µM: > 100%
[5]; Homo sapiens, K562, K-562 (Leukemia), 10 µM, read-out: GI%
  inhibition at 10 µM: > 100%
[5]; Homo sapiens, K562
  GI50: 1.96 µM
[6]; Homo sapiens, LOX IMVI (Melanoma), 10 µM, read-out: GI%
  inhibition at 10 µM: > 100%
[6]; Homo sapiens
  GI50: 4.67 µM
[7]; Homo sapiens, MCF7 (Breast cancer), 10 µM, read-out: GI%
  inhibition at 10 µM: > 100%
[7]; Homo sapiens
  GI50: 0.66 µM
[8]; Homo sapiens, MDA-MB-468 (Breast cancer), 10 µM, read-out: GI%
  inhibition at 10 µM: > 100%
[8]; Homo sapiens
  GI50: 3.27 µM
[9]; Homo sapiens, RPMI-8226 (Leukemia), 10 µM, read-out: GI%
  inhibition at 10 µM: > 100%
[9]; Homo sapiens
  GI50: 3.21 µM
[10]; Homo sapiens, SF-539 (CNS cancer), 10 µM, read-out: GI%
  inhibition at 10 µM: > 100%
[10]; Homo sapiens
  GI50: 2.02 µM
[11]; Homo sapiens, SNB-19 (CNS cancer), 10 µM, read-out: GI%
  inhibition at 10 µM: > 100%
[11]; Homo sapiens
  GI50: 3.42 µM
[12]; Homo sapiens, SNB-75 (CNS cancer), 10 µM, read-out: GI%
  inhibition at 10 µM: > 100%
[12]; Homo sapiens
  GI50: 1.28 µM
[13]; Homo sapiens, SW-620 (Colon cancer), 10 µM, read-out: GI%
  inhibition at 10 µM: > 100%
[13]; Homo sapiens
  GI50: 4.4 µM

## N'-(2-Hydroxybenzylidene)-2-phenyl-1H-benzo[d]imidazole-5-carbohydrazide [8a]
[1]
  % Inhibition: 43.03 ± 2.32%
[2]; A498 (Renal cancer), 10 µM
  GI%: – (GI% < 5%)
[2]
  GI50: 16.9 µM
[3]; DU-145 (Prostate cancer), 10 µM
  GI%: L (GI% > 100)
[3]
  GI50: 2.75 µM
[4]; HCT-116 (Colon cancer), 10 µM
  GI%: L (GI% > 100)
[4]; HCT-116, Colon cancer, five-dose
  GI50: 0.88 µM
[5]; K-562 (Leukemia), 10 µM
  GI%: 78.58%
[5]
  GI50: 3.39 µM
[6]; LOX IMVI (Melanoma), 10 µM
  GI%: 88.38%
[6]
  GI50: 2 µM
[7]; MCF7 (Breast cancer), 10 µM
  GI%: 96.94%
[7]
  GI50: 2.63 µM
[8]; MDA-MB-468 (Breast cancer), 10 µM
  GI%: 99.81%
[8]
  GI50: 3.45 µM
[9]; RPMI-8226 (Leukemia), 10 µM
  GI%: 88.59%
[9]
  GI50: 1.19 µM
[10]; SF-539 (CNS cancer), 10 µM
  GI%: L (GI% > 100)
[10]
  GI50: 2.74 µM
[11]; SNB-19 (CNS cancer), 10 µM
  GI%: 95.02%
[11]
  GI50: 4.16 µM
[12]; SNB-75 (CNS cancer), 10 µM
  GI%: L (GI% > 100)
[12]
  GI50: 2.2 µM
[13]; SW-620 (Colon cancer), 10 µM
  GI%: 77.39%
[13]
  GI50: 3.48 µM
